Experimental findings from the C3SDB collision cross section collection are described below.

The conditions of the series: instrument: DT, single field, calibrated with Agilent tune mix (Agilent).

The structures appear in SMILES notation.

In the case of `C[C@]12CC[C@@H]3c4ccc(OS(=O)(=O)O)cc4CC[C@H]3[C@@H]1CCC2=O` [Estrone 3-sulfate], the “collision cross section (N2)” value ([M-H]-) is 188.85 Å².
Consider `C[C@]12CC[C@@H]3c4ccc(O)cc4CC[C@H]3[C@@H]1CCC2=O` [Estrone], for which the “collision cross section (N2)” value by setting is: ([M+H]+) 164.3 Å²; ([M-H]-) 170.63 Å².
As for `O=c1cc(-c2ccccc2)oc2ccccc12` [Flavone], the “collision cross section (N2)” value ([M+H]+) is listed as 146.7 Å².
In the case of `Nc1nc(=O)c2nc(CNc3ccc(C(=O)N[C@@H](CCC(=O)O)C(=O)O)cc3)cnc2[nH]1` [Folate], under “[M+H]+”, the “collision cross section (N2)” value is on record as 195.5 Å².
With `C[C@@H]1OC(OP(=O)(O)OP(=O)(O)OC[C@H]2O[C@@H](n3cnc4c(=O)nc(N)[nH]c43)[C@H](O)[C@@H]2O)[C@@H](O)[C@H](O)[C@@H]1O` (stereo partly drawn) [GDP-L-Fucose], the “collision cross section (N2)” value reads like this: ([M+H]+) 217.2 Å²; ([M-H]-) 206.72 Å².
On to `Nc1nc(=O)c2ncn([C@@H]3O[C@H](COP(=O)(O)OP(=O)(O)O[C@H]4O[C@H](CO)[C@@H](O)[C@H](O)[C@H]4O)[C@@H](O)[C@H]3O)c2[nH]1` [GDP-glucose], for which the “collision cross section (N2)” value reads like this: ([M+H]+) 218.9 Å²; ([M-H]-) 208.72 Å².
Consider `Nc1nc(=O)c2ncn([C@@H]3O[C@H](COP(=O)(O)OP(=O)(O)O)[C@@H](O)[C@H]3O)c2[nH]1` [GDP], for which the “collision cross section (N2)” value ([M+H]+) stood at 191.5 Å².
For `OC[C@H]1O[C@H](OC2[C@@H](O)[C@H](O)C(O)[C@H](O)[C@@H]2O)[C@H](O)[C@@H](O)[C@H]1O` (some centres undefined) [Galactinol], the “collision cross section (N2)” value ([M+Na-2H]-) amounted to 168.98 Å² and the “collision cross section (N2)” value ([M+Na]+) is reported as 177.7 Å².
For `O=Cc1cc(O)ccc1O` [Gentisaldehyde], the “collision cross section (N2)” value ([M+H]+) is 122 Å² and the “collision cross section (N2)” value ([M-H]-) was 119.54 Å².
Turning to `N[C@@H](CCC(=O)N[C@@H](CSSC[C@H](NC(=O)CC[C@H](N)C(=O)O)C(=O)NCC(=O)O)C(=O)NCC(=O)O)C(=O)O` [Glutathione disulfide], under “[M+H]+”, the “collision cross section (N2)” value is 224.7 Å².
For `C[N+](C)(C)CCOP(=O)([O-])OC[C@H](O)CO` [Glycerophosphocholine], where the note is “[M+H]+”, the “collision cross section (N2)” value was 155.5 Å².
For `C[C@H](CCC(=O)NCC(=O)O)[C@H]1CC[C@H]2[C@@H]3[C@H](O)C[C@@H]4C[C@H](O)CC[C@]4(C)[C@H]3CC[C@]12C` [Glycochenodeoxycholate], the “collision cross section (N2)” value by setting is: ([M+Na]+) 203.3 Å²; ([M-H]-) 198.85 Å².
`C[C@H](CCC(=O)NCC(=O)O)[C@H]1CC[C@H]2[C@@H]3CC[C@@H]4C[C@H](O)CC[C@]4(C)[C@H]3C[C@H](O)[C@]12C` [Glycodeoxycholic acid]: the “collision cross section (N2)” value by setting is: ([M+Na]+) 203.9 Å²; ([M-H]-) 197.81 Å².
Regarding `NC(N)=NCC(=O)O` [Guanidoacetic acid], under “[M+H]+”, the “collision cross section (N2)” value was determined as 124.8 Å².
In the case of `Nc1nc(=O)c2ncn([C@@H]3O[C@H](COP(=O)(O)OP(=O)(O)O[C@H]4O[C@H](CO)[C@@H](O)[C@H](O)[C@@H]4O)[C@@H](O)[C@H]3O)c2[nH]1` [Guanosine diphosphate mannose], the “collision cross section (N2)” value reads like this: ([M+Na]+) 220.9 Å²; ([M-H]-) 207.35 Å².
Turning to `CC(C)(COP(=O)(O)OP(=O)(O)OC[C@H]1O[C@@H](n2cnc3c(N)ncnc32)[C@H](O)[C@@H]1OP(=O)(O)O)[C@@H](O)C(=O)NCCC(=O)NCCSC(=O)C[C@@](C)(O)CC(=O)O` [HMG-CoA], where the note is “[M-H]-”, the “collision cross section (N2)” value is recorded as 259.35 Å².
Take `NCCc1cnc[nH]1` [Histamine]: the “collision cross section (N2)” value ([M+H]+) was found to be 120 Å².
As for `O=C(O)CC[C@@](O)(CC(=O)O)C(=O)O` [Homocitrate], the “collision cross section (N2)” value is, setting by setting: ([M+Na]+) 145 Å²; ([M-H]-) 129.99 Å².
As to `O=C(O)CC(C(=O)O)C(O)C(=O)O` (centres undefined) [Isocitrate], for the setting “[M-H]-”, the “collision cross section (N2)” value worked out at 125.26 Å².
For the compound `N[C@@H](C[C@@H](O)C(=O)O)C(=O)O` [L-Erythro-4-Hydroxyglutamic acid], the “collision cross section (N2)” value was 135.8 Å² ([M+H]+) and 123.86 Å² ([M-H2O-H]-).
As for `C[C@@H]1OC(O)[C@@H](O)[C@H](O)[C@@H]1O` (stereo partly drawn) [L-Fucose], under “[M+Na]+”, the “collision cross section (N2)” value is 144.6 Å².
Consider `NC(=O)CC[C@H](N)C(=O)O` [L-Glutamine], for which the “collision cross section (N2)” value ([M+Na]+) is given as 133.7 Å².
Consider `N[C@H](CO)Cc1cnc[nH]1` [L-Histidinol], for which the “collision cross section (N2)” value is 128.3 Å² ([M+H]+) and 126.11 Å² ([M-H]-).
`O=C(O)[C@H](O)[C@@H](O)CO` [L-Threonate]: the “collision cross section (N2)” value ([M-H]-) is on record as 116.84 Å².
Regarding `N[C@@H](Cc1cc(I)c(Oc2cc(I)c(O)c(I)c2)c(I)c1)C(=O)O` [L-Thyroxine], the “collision cross section (N2)” value is recorded as 216.2 Å² ([M+H]+) and 194.19 Å² ([M+Na-2H]-).
Consider `CCCCCCCCCCCC(=O)SCCNC(=O)CCNC(=O)[C@H](O)C(C)(C)COP(=O)(O)OP(=O)(O)OC[C@H]1O[C@@H](n2cnc3c(N)ncnc32)[C@H](O)[C@@H]1OP(=O)(O)O` [Lauroyl-CoA], for which the “collision cross section (N2)” value worked out at 284 Å² ([M+H]+) and 283.18 Å² ([M-H]-).
